Data: US11667606B2, “Thyromimetics” (Autobahn Therapeutics, Inc., priority 2019, dated 2023)

What was measured:
[1] = molecular target: T1, TRα (Homo sapiens, UniProt P10827); assay: Thyroid-hormone reporter-gene assay, TRα (Gal4 DBD hybrid, luciferase, HEK293); assay type: cell-based; conditions: reporter cells derived from HEK293, 24 hr incubation, luciferase readout
T1 construct: expressed in transfected cells; host or cells: HEK293
T1 sequence (P10827 128-410 isoform P10827-2 limits assumed): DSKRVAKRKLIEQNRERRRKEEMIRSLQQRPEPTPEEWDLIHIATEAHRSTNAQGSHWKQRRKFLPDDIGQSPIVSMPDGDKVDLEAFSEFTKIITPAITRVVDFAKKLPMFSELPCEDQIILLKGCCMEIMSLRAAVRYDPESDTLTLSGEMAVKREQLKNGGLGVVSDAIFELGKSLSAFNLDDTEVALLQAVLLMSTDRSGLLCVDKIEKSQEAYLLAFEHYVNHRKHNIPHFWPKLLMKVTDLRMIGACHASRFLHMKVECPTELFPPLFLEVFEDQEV
Experimental: (§1) Compounds were tested for thyroid-hormone receptor activity using TR reporter-gene assays. Reporter cells used in the assays express a TR-receptor hybrid (either TRα or TRβ) in which the native N-terminal DNA binding domain (DBD) has been replaced with that of the yeast Gal4 DBD. The reporter gene, firefly luciferase, is functionally linked to the Gal4 upstream activation sequence (UAS). Both cell lines were derived from human embryonic kidney (HEK293).
(§2) A suspension of reporter cells was prepared in cell recovery medium containing 10% charcoal-stripped FBS, and dispensed into assay plates. The plates were pre-incubated for 6 hours in a cell culture incubator (37° C./5% CO2/85% humidity).
(§3) These intermediate stocks were subsequently diluted directly into compound screening medium containing 10% charcoal-stripped FBS to generate “2×-concentration” treatment media (containing 0.2, 0.4 or 0.8% DMSO).
(§4) At the end of the pre-incubation period, culture media were discarded from the assay plates, and all wells received 100 μl of compound screening medium. 100 μl of each of the previously prepared “2×-concentration” treatment media were dispensed into duplicate assay wells, thereby achieving the desired final treatment concentrations. The final concentration of DMSO in all assay wells was 0.1, 0.2 or 0.4%. Assay plates were incubated for 24 hr in a cell culture incubator (37° C./5% CO2/85% humidity).
(§5) At the 24 h assay endpoint, treatment media were discarded and […] of luciferase detection reagent was added. Relative luminometer units (RLUs) were quantified from each assay well.

[2] = molecular target: T2, TRβ (Homo sapiens, UniProt P10828); assay: Thyroid-hormone reporter-gene assay, TRβ (Gal4 DBD hybrid, luciferase, HEK293); assay type: cell-based; conditions: for T3-SI, selectivity index (SI) calculated as EC50 (TRα)/EC50 (TRβ): TRβ over TRα selectivity from reporter-gene EC50 values; for EC50: reporter cells derived from HEK293, 24 hr incubation, luciferase readout
T2 construct: expressed in transfected cells; host or cells: HEK293
T2 sequence (P10828 217-461 limits assumed): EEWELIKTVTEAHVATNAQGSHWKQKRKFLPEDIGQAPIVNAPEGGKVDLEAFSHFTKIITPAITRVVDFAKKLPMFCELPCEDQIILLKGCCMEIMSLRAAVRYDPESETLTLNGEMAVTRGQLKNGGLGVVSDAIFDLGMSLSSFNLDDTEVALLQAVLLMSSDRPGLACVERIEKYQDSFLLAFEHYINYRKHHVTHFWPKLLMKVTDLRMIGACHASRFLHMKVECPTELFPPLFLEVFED
Experimental: as §1, §2, §3, §4, §5

| EC50 [1] | T3-SI, selectivity index (SI) calculated as EC50 (TRα)/EC50 (TRβ) [2] | EC50 [2] | SMILES |
| --- | --- | --- | --- |
| 100 to 1000 nM | ++ (3X < T3-SI ≤ 30X) | 100 to 1000 nM | O=C(O)COc1cc(Cl)c(Cc2ccc(O)c(Cc3ccc(F)cc3F)c2)c(Cl)c1 [Compound 88, 2-(3,5-dichloro-4-(3-(2,4-difluorobenzyl)-4-hydroxybenzyl)phenoxy)acetic Acid] |
| 100 to 1000 nM | ++ (3X < T3-SI ≤ 30X) | 10 to 100 nM | CCC(c1ccc(F)cc1)c1cc(Cc2c(Cl)cc(OCC(=O)O)cc2Cl)ccc1O (stereo not drawn) [Compound 98, 2-(3,5-dichloro-4-(3-(1-(4-fluorophenyl)propyl)-4-hydroxybenzyl)phenoxy)acetic Acid] |
| > 1000 nM | +++ (T3-SI > 30X) | 100 to 1000 nM | CCCC(c1ccc(F)cc1)c1cc(Cc2c(Cl)cc(OCC(=O)O)cc2Cl)ccc1O (stereo not drawn) [Compound 102, 2-(3,5-dichloro-4-(3-(1-(4-fluorophenyl)butyl)-4-hydroxybenzyl)phenoxy) acetic Acid] |
| 100 to 1000 nM | ++ (3X < T3-SI ≤ 30X) | 10 to 100 nM | CC(C)(c1ccc(F)cc1)c1cc(Cc2c(Cl)cc(OCC(=O)O)cc2Cl)ccc1O [Compound 105, 2-(3,5-dichloro-4-(3-(2-(4-fluorophenyl)propan-2-yl)-4-hydroxybenzyl)phenoxy)acetic Acid] |
| 100 to 1000 nM | ++ (3X < T3-SI ≤ 30X) | 100 to 1000 nM | O=C(O)COc1cc(Cl)c(Cc2ccc(O)c(C3CCCc4cc(F)ccc43)c2)c(Cl)c1 (stereo not drawn) [Compound 111, 2-(3,5-dichloro-4-(3-(6-fluoro-1,2,3,4-tetrahydronaphthalen-1-yl)-4-hydroxybenzyl)phenoxy)acetic Acid] |
| > 1000 nM | ++ (3X < T3-SI ≤ 30X) | > 1000 nM | O=C(O)COc1cc(Cl)c(Cc2ccc(O)c(C3CCc4cc(F)ccc43)c2)c(Cl)c1 (stereo not drawn) [Compound 113, 2-(3,5-dichloro-4-(3-(5-fluoro-2,3-dihydro-1H-inden-1-yl)-4-hydroxybenzyl)phenoxy)acetic Acid] |
| 100 to 1000 nM | ++ (3X < T3-SI ≤ 30X) | 10 to 100 nM | Cc1cc(OCC(=O)O)cc(Cl)c1Cc1ccc(O)c(Cc2ccc(F)cc2)c1 [Compound 115, 2-(3-chloro-4-(3-(4-fluorobenzyl)-4-hydroxybenzyl)-5-methylphenoxy) acetic Acid] |
| > 1000 nM | ++ (3X < T3-SI ≤ 30X) | 100 to 1000 nM | O=C(O)COc1cc(Cl)c(Cc2ccc(O)c(Cc3ccoc3)c2)c(Cl)c1 [Compound 119, 2-(3,5-dichloro-4-(3-(furan-3-ylmethyl)-4-hydroxybenzyl)phenoxy)acetic Acid] |
| > 1000 nM | ++ (3X < T3-SI ≤ 30X) | 100 to 1000 nM | O=C(O)COc1cc(Cl)c(Cc2ccc(O)c(Cc3ccsc3)c2)c(Cl)c1 [Compound 121, 2-(3,5-dichloro-4-(4-hydroxy-3-(thiophen-3-ylmethyl)benzyl)phenoxy) acetic Acid] |
| 100 to 1000 nM | ++ (3X < T3-SI ≤ 30X) | 10 to 100 nM | O=C(O)COc1cc(Cl)c(Cc2ccc(O)c(C(CC(F)(F)F)c3ccc(F)cc3)c2)c(Cl)c1 (stereo not drawn) [Compound 127, 2-(3,5-dichloro-4-(4-hydroxy-3-(3,3,3-trifluoro-1-(4-fluorophenyl)propyl)benzyl)phenoxy)acetic Acid] |
| > 1000 nM | ++ (3X < T3-SI ≤ 30X) | > 1000 nM | O=C(O)COc1cc(Cl)c(Cc2ccc(O)c(CCc3ccc(F)cc3)c2)c(Cl)c1 [Compound 135, 2-(3,5-dichloro-4-(3-(4-fluorophenethyl)-4-hydroxybenzyl)phenoxy)acetic Acid] |

The next lines start with the compound.

| SMILES | EC50 [1] | T3-SI, selectivity index (SI) calculated as EC50 (TRα)/EC50 (TRβ) [2] | EC50 [2] |
| --- | --- | --- | --- |
| O=C(O)COc1cc(Cl)c(Cc2ccc(O)c(Cc3cccc(F)c3)c2)c(Cl)c1 [Compound 86, 2-(3,5-dichloro-4-(3-(3-fluorobenzyl)-4-hydroxybenzyl)phenoxy)acetic Acid] | > 1000 nM | ++ (3X < T3-SI ≤ 30X) | > 1000 nM |
| O=C(O)COc1cc(Cl)c(Cc2ccc(O)c(Cc3ccc(Cl)cc3)c2)c(Cl)c1 [Compound 90, 2-(3,5-dichloro-4-(3-(4-chlorobenzyl)-4-hydroxybenzyl)phenoxy)acetic Acid] | > 1000 nM | ++ (3X < T3-SI ≤ 30X) | > 1000 nM |
| CC(C)C(c1ccc(F)cc1)c1cc(Cc2c(Cl)cc(OCC(=O)O)cc2Cl)ccc1O (stereo not drawn) [Compound 104, 2-(3,5-dichloro-4-(3-(1-(4-fluorophenyl)-2-methylpropyl)-4-hydroxybenzyl)phenoxy)acetic Acid] | 100 to 1000 nM | ++ (3X < T3-SI ≤ 30X) | 10 to 100 nM |
| O=C(O)COc1cc(Cl)c(Cc2ccc(O)c(C(c3ccc(F)cc3)C3CC3)c2)c(Cl)c1 (stereo not drawn) [Compound 107, 2-(3,5-dichloro-4-(3-(cyclopropyl(4-fluorophenyl)methyl)-4-hydroxybenzyl)phenoxy)acetic Acid] | 100 to 1000 nM | ++ (3X < T3-SI ≤ 30X) | 10 to 100 nM |
| O=C(O)COc1cc(Cl)c(Cc2ccc(O)c(C(c3ccc(F)cc3)C3CCC3)c2)c(Cl)c1 (stereo not drawn) [Compound 109, 2-(3,5-dichloro-4-(3-(cyclobutyl(4-fluorophenyl)methyl)-4-hydroxybenzyl)phenoxy)acetic Acid] | > 1000 nM | +++ (T3-SI > 30X) | 100 to 1000 nM |
| O=C(O)COc1cc(Cl)c(Cc2ccc(O)c(Cc3cccs3)c2)c(Cl)c1 [Compound 123, 2-(3,5-dichloro-4-(4-hydroxy-3-(thiophen-2-ylmethyl)benzyl)phenoxy) acetic Acid] | > 1000 nM | ++ (3X < T3-SI ≤ 30X) | 100 to 1000 nM |
| O=C(O)COc1cc(Cl)c(Cc2ccc(O)c(C(c3ccc(F)cc3)C(F)(F)F)c2)c(Cl)c1 (stereo not drawn) [Compound 125] | 100 to 1000 nM | ++ (3X < T3-SI ≤ 30X) | 10 to 100 nM |
| COCC(c1ccc(F)cc1)c1cc(Cc2c(Cl)cc(OCC(=O)O)cc2Cl)ccc1O (stereo not drawn) [Compound 129, 2-(3,5-dichloro-4-(3-(1-(4-fluorophenyl)-2-methoxyethyl)-4-hydroxybenzyl)phenoxy)acetic Acid] | > 1000 nM | +++ (T3-SI > 30X) | 100 to 1000 nM |
| Cc1cc(OCC(=O)O)cc(Br)c1Cc1ccc(O)c(C(C)c2ccc(F)cc2)c1 (stereo not drawn) [Compound 131, 2-(3-bromo-4-(3-(1-(4-fluorophenyl)ethyl)-4-hydroxybenzyl)-5-methylphenoxy)acetic Acid] | 10 to 100 nM | ++ (3X < T3-SI ≤ 30X) | < 10 nM |
| Cc1cc(OCC(=O)O)cc(C)c1Cc1ccc(O)c(Cc2ccc(F)cc2)c1 [Compound 133, 2-(4-(3-(4-fluorobenzyl)-4-hydroxybenzyl)-3,5-dimethylphenoxy)acetic Acid] | 100 to 1000 nM | ++ (3X < T3-SI ≤ 30X) | 10 to 100 nM |
| O=C(COc1cc(Cl)c(Cc2ccc(O)c(-c3cccc(OC(F)F)c3)c2)c(Cl)c1)N1CC1 [Compound 138, 1-(aziridin-1-yl)-2-(3,5-dichloro-4-((3′-(difluoromethoxy)-6-hydroxy-[1,1′-biphenyl]-3-yl)methyl)phenoxy)ethan-1-one] | > 1000 nM | ++ (3X < T3-SI ≤ 30X) | 100 to 1000 nM |
